Test results as given in patent US20230213527A1, “COMPOSITIONS AND METHODS FOR POLYPEPTIDE ANALYSIS” (Quantum-Si Incorporated, priority 2021, published 2023).
“Also recorded” adds a separate entry of the source. Square brackets hold non-standard residues; d marks the D form. Ends that are not written are not given here. Cit = NC(=O)NCCC[C@H](N)C(=O)O

Key:
PS610 = experiment: Dynamic single-molecule sequencing, recognition by PS610; assay type: binding, A. tumefaciens; conditions: for RS mean PD, recognition of N-terminal phenylalanine: lysine or acetylated lysine downstream
Method: The semiconductor chip was placed in the sequencing device and a chip check was performed to test electronic circuit function and to optimize laser coupling alignment. The chip was then removed from the device socket and the chip was washed twice with 50 μL of 70% isopropanol, followed by four washes with 30 μL of wash buffer (50 mM MOPS pH 8.0, 60 mM potassium acetate, 50 mM glucose, 20 mM magnesium acetate, and surfactant mix) through a flow cell attached to the chip. A second chip check was then performed. […] The chip was then washed six times with wash buffer, followed by addition of an imaging solution (wash buffer with 5 mM Trolox and an oxygen scavenging system). The laser was unblocked and the occupancy percentage (target 10-30%, Poisson distributed) was recorded by acquiring a photobleaching signal from a fluorophore attached to the peptide complex during 5 min of laser illumination. […] The laser was then blocked briefly and aminopeptidases were added to the sequencing reaction via the flow cell and mixed thoroughly (final concentration 2-8 μM PhTET2 and/or 20-80 μM PhTET3, as indicated according to the experiment). The laser was then unblocked, and data was recorded for 10 hours. For all runs, 30 μL of mineral oil was added to fluid reservoirs at each port of the flow cell to prevent evaporation during the run.
(§1) The measured signal on-chip comprises various noise components, the most dominant one being due to fluorescent emissions from diffusing recognizers in the reaction chamber. The pulse caller algorithm for a given reaction chamber starts by estimating the statistical properties of this background noise component. Once an estimate within certain error bounds has been established, the algorithm works in an online fashion observing new frames of data as they are generated. At each point in time, the algorithm maintains state indicating whether the signal is due to the background component only or a pulse from a recognizer-NAA interaction is being observed. The state transition from background to pulse is triggered using an edge detection test where the shift in signal is expected to be significant with respect to the background component's statistical distribution. The state transition from pulse to background is triggered when a small window of the most recent frames of the signal appears to conform to the background component's distribution again. The algorithm maintains an updated model of the background component as new background frames are observed. This provides robustness against drift in the signal intensity together with a feedback control loop that maintains a stable optical coupling of the laser into the chip based on any such detected drift. As detected pulses can be due to true recognizer-to-dipeptide interaction events as well as other occasional transient noise spikes, a downstream filter layer is employed to test the significance of pulse events based on their duration, intensity, and noise patterns within the context of the full timeline of the run and the entire dataset of reaction chambers.
Initial regions are determined by performing a sliding window calculation of pulse rate along the time dimension of a series of pulses. Regions with a mean pulse rate >1 pulse/min are then subdivided according to a greedy bisection approach. Here, the pulses on the left and right of each potential split are assessed for statistically significant deviation in any of four separate pulse properties—intensity, bin ratio, pulse duration, and interpulse duration—using a Mann-Whitney U Test. To define RSs, the split point with the lowest p-value for any of the four properties is used to sub-divide the region and the process continues until no regions remain with a candidate split point with p-value <10^−5 in any comparison. In this manner, transitions from one RS to the next in a region of continuous pulsing are determined a priori on the basis of changes in fluorescence properties of pulsing kinetics.

PS1165 = target: T1, PS1165; experiment: Dynamic single-molecule sequencing, recognition by PS1165; assay type: binding; conditions: lysine or acetylated lysine downstream
T1 construct: PS1165; 511
Method: Sequencing reactions using the recognizers PS691 (R), PS610 (FYW), PS961 (LIV), and PS1165 (A) were performed separately for the peptides RLYFKAYPDDD (SEQ ID NO: 825) and RLK{acetyl}FIAYPDDD (SEQ ID NO: 826) (where K{acetyl} is an acetylated lysine). Recognition of the N-terminal phenylalanine and alanine residues preceding lysine or acetyl-lysine by PS610 and PS1165, respectively, was observed, with distinct pulse durations depending on whether the peptide contained lysine (F=1.4 s, A=1.3 s; FIG. 16A) or acetylated lysine (F=1.8 s, A=2.2 s; FIG. 16B). Recognition of N-terminal phenylalanine occurred with RS mean PD of 1.4 s for FAK and 1.8 s for FAK{acetyl }. Recognition of N-terminal alanine occurred with RS mean PD of 1.3 s for AK and 2.2 s for AK{acetyl}.

PhTET3 = target: T2, PhTET3 (Pyrococcus horikoshii, UniProt O59485); experiment: Aminopeptidase cleavage during dynamic sequencing with PhTET3; assay type: biochemical, P. horikoshii
T2 construct: His tag (inferred: purified as the recognizers, on Ni-NTA); made in house; host or cells: E. coli BL21(DE3)
T2 sequence (O59485 1-354): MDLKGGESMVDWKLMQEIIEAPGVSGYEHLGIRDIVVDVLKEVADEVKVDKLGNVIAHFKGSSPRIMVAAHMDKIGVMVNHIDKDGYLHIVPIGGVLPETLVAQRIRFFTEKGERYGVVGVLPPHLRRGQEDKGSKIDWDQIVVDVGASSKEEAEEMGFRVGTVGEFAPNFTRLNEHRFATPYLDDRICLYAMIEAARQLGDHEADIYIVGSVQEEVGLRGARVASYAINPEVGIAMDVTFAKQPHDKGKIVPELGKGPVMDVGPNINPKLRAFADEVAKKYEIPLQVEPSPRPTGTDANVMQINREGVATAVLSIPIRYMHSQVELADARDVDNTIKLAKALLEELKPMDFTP
Text: The collected traces consisted of regions of distinct pulsing, which were referred to as recognition segments (RSs), separated by regions lacking recognition pulsing (non-recognition segments, NRSs). Analysis software was developed to automatically identify pulsing regions and transition points within traces (Methods). Traces began with recognition of phenylalanine with a median PD of 2.36 s (FIG. 2D), in agreement with the PD observed for FAA in recognition-only assays. This pattern terminated after aminopeptidase addition (on average 11 min after addition), and was followed by the ordered appearance of two RSs with median PDs of 0.25 s and 0.49 s (FIG. 2D), corresponding to the short and medium PDs obtained in YAA and WAA recognition-only assays.
(§2) A second chip check was then performed. […] Data was recorded for 15 min.

PS961 [1] = experiment: Dynamic single-molecule sequencing, recognition by PS961; assay type: binding, Planctomycetes; conditions: for RS mean PD, recognition of N-terminal leucine: tyrosine or phosphotyrosine at position 2
Method: The semiconductor chip was placed in the sequencing device and a chip check was performed to test electronic circuit function and to optimize laser coupling alignment. The chip was then removed from the device socket and the chip was washed twice with 50 μL of 70% isopropanol, followed by four washes with 30 μL of wash buffer (50 mM MOPS pH 8.0, 60 mM potassium acetate, 50 mM glucose, 20 mM magnesium acetate, and surfactant mix) through a flow cell attached to the chip. A second chip check was then performed. The laser was then blocked via an integrated software-controlled shutter, peptide complex was added to a final concentration of 1-10 nM and mixed thoroughly, and the chip was incubated for 15 min. The chip was then washed six times with wash buffer, followed by addition of an imaging solution (wash buffer with 5 mM Trolox and an oxygen scavenging system). The laser was unblocked and the occupancy percentage (target 10-30%, Poisson distributed) was recorded by acquiring a photobleaching signal from a fluorophore attached to the peptide complex during 5 min of laser illumination. For NAA recognition-only assays, after peptide loading, labeled recognizer was added to a final concentration of 50 nM PS610, 100 nM PS691, or 250 nM PS961 (as indicated according to the experiment), and data was recorded for 10 hours. For dynamic sequencing assays, after peptide loading, a mixture of labeled recognizers was added to obtain final concentrations of 50 nM PS610, 100 nM PS691, and 250 nM PS961. Data was recorded for 15 min. The laser was then blocked briefly and aminopeptidases were added to the sequencing reaction via the flow cell and mixed thoroughly (final concentration 2-8 μM PhTET2 and/or 20-80 μM PhTET3, as indicated according to the experiment). The laser was then unblocked, and data was recorded for 10 hours. For all runs, 30 μL of mineral oil was added to fluid reservoirs at each port of the flow cell to prevent evaporation during the run.
as §1
Initial regions are determined by performing a sliding window calculation of pulse rate along the time dimension of a series of pulses. Regions with a mean pulse rate >1 pulse/min are then subdivided according to a greedy bisection approach.

PS691 = conditions: tyrosine or phosphotyrosine at position 3
Method: The semiconductor chip was placed in the sequencing device and a chip check was performed to test electronic circuit function and to optimize laser coupling alignment. The chip was then removed from the device socket and the chip was washed twice with 50 μL of 70% isopropanol, followed by four washes with 30 μL of wash buffer (50 mM MOPS pH 8.0, 60 mM potassium acetate, 50 mM glucose, 20 mM magnesium acetate, and surfactant mix) through a flow cell attached to the chip. A second chip check was then performed. […] The laser was unblocked and the occupancy percentage (target 10-30%, Poisson distributed) was recorded by acquiring a photobleaching signal from a fluorophore attached to the peptide complex during 5 min of laser illumination. For NAA recognition-only assays, after peptide loading, labeled recognizer was added to a final concentration of 50 nM PS610, 100 nM PS691, or 250 nM PS961 (as indicated according to the experiment), and data was recorded for 10 hours. […] Data was recorded for 15 min. […]
The measured signal on-chip comprises various noise components, the most dominant one being due to fluorescent emissions from diffusing recognizers in the reaction chamber. […] This provides robustness against drift in the signal intensity together with a feedback control loop that maintains a stable optical coupling of the laser into the chip based on any such detected drift. […]

PS621 = target: T3, PS621 (Kluyveromyces lactis, UniProt O60014, E174T/N105S/N176F/R116K/S153T/V146T); experiment: Dynamic single-molecule sequencing, recognition by PS621; assay type: binding; conditions: citrulline at position 2
T3 construct: PS621; […]

PS1223 = experiment: Dynamic single-molecule sequencing, recognition by PS1223; assay type: binding
Method: (§3) Sequencing reactions using the recognizers PS610 (FYW), PS1220 (R), and PS1223 (LIV) were performed separately for the QP706 and QP1073 peptide fragments. Each recognizer was labeled with a unique dye and/or unique number of dyes. A scatter plot of bin ratio v. pulse duration is shown for the QP706 peptide fragment in FIG. 18A and for the QP1073 peptide fragment in FIG. 18B. In the plot of FIG. 18A, three clusters corresponding to FLE, LEQ, and RFL segments are visible. […] In the plot of FIG. 18B, two clusters corresponding to FLE and LEQ segments are visible, but there is no cluster corresponding to RFL.
In this example, sequencing reactions were conducted for 4 pairs of unmodified and citrullinated peptides: QP1028 & QP1029, QP1030 & QP1031, QP1032 & QP1033, and QP707 & QP789. […] For the QP1028 & QP1029 and QP1030 & QP1031 pairs, sequencing reactions were conducted using the PS610 (FYW) recognizer. For the QP1032 & QP1033 and QP707 & QP789 pairs, sequencing reactions were conducted using the PS1223 (LIV) recognizer.

PS1220 = target: T4, PS1220 (Kluyveromyces lactis, UniProt O60014, E169T/E174T/I162E/N105S/N176F/R116K/S153T/V146L); experiment: Dynamic single-molecule sequencing, recognition by PS1220; assay type: binding; conditions: vimentin peptide fragments
T4 construct: PS1220; 566
T4 sequence (O60014 with tags, fused parts or gaps N105S/R116K/V146L/S153T/I162E/E169T/E174T/N176F): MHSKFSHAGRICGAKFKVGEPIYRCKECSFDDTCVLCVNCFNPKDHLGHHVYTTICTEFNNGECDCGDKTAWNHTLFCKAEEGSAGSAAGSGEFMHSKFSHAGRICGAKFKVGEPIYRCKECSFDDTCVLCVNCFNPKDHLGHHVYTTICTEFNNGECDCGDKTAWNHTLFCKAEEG
Method: as §3
Results from additional sequencing reactions performed using the recognizers PS610 (FYW), PS1220 (R), and PS1223 (LIV) and the QP706 and QP1073 peptide fragments are shown in FIGS. 19A-19D and 20A-20D. Traces from the QP706 reactions are shown in FIGS. 19A-19B, and corresponding scatter plots of intensity v. bin ratio are shown in FIGS. 19C-19D. […] Traces from the QP1073 reactions are shown in FIGS. 20A-20B, and the corresponding scatter plots of intensity v. bin ratio are shown in FIGS. 20C-20D.

PS961 [2] = experiment: NAA recognition-only single-molecule assay on chip with PS961; assay type: binding, Planctomycetes; conditions: 250 nM PS961
Text: To expand the set of recognizable NAAs, N-end rule pathway proteins were investigated as a source of additional recognizers. In a comprehensive screen of diverse ClpS family proteins, a group of ClpS proteins from the bacterial phylum Planctomycetes with native binding to N-terminal leucine, isoleucine, and valine was discovered. […] The median PD of binding to peptides with N-terminal LAA, IAA, and VAA was 1.21, 0.28, and 0.21 s, respectively, in agreement with bulk characterization (FIG. 7C).
as §2
The resulting regions are called recognition segments (RSs).

PS961, sequence (as listed by the source): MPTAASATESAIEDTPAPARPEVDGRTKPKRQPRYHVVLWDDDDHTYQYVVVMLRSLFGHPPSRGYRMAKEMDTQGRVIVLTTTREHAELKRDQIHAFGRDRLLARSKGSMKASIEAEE
PS1223, sequence (as listed by the source): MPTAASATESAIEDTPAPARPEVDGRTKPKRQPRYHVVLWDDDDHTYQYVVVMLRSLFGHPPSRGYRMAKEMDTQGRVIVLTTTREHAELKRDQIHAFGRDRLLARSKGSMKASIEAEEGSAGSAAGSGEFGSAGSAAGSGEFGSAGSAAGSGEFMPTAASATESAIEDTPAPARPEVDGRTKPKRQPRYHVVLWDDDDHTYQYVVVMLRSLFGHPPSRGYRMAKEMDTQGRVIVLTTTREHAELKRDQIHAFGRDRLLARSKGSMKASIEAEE
T1 sequence (Q13490 with tags, fused parts or gaps): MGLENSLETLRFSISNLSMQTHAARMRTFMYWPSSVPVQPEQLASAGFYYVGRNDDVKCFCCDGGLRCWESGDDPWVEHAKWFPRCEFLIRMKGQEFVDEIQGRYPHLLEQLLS
T3 sequence (O60014 other isoform, or with tags, fused parts or gaps N105S/R116K/V146T/S153T/E174T/N176F): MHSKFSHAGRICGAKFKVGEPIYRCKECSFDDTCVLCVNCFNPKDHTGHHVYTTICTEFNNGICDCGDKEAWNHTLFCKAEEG

## RLYFKAYPDDD (FAK) [peptide containing lysine]
PS610
  RS mean PD, recognition of N-terminal phenylalanine: 1.4 s
PS1165
  RS mean PD, recognition of N-terminal alanine: 1.3 s

## FAAWAAYAA [FAAWAAYAAAADDD]
PS610; PS610, PhTET3 added after 15 minutes
  Median PD, recognition of phenylalanine (first RS): 2.36 s
PS610; PS610 with PhTET3
  Median PD, first RS appearing after phenylalanine: 0.25 s
  Median PD, second RS appearing after phenylalanine: 0.49 s
PhTET3
  Termination of phenylalanine recognition pattern after aminopeptidase addition (average): 11 min

## RLpYFIAYPDDD
PS961 [1]
  RS mean PD, recognition of N-terminal leucine: 3.4 s
PS691
  RS mean PD, recognition of N-terminal arginine: 0.45 s
PS610
  Recognition of Y or pY by PS610 between L and F: not recognized

## LCitLAFAYPDDDK (L[Cit]LAFAYPDDDK) [QP789]
PS961 [1]; arginine or citrulline at position 2
  Median PD of recognition of N-terminal leucine by PS961: 0.78 s
PS621
  N-terminal arginine recognition by PS621: eliminated
PS1223; recognizer PS1223, recognition of the N-terminal amino acid
  Pulse Width: 0.92 s

## VRFLEQQNK [QP706, peptide fragment of vimentin]
PS1220
  Recognition of arginine / citrulline residue by PS1220: recognized; also recorded: recognition
PS610; vimentin peptide fragments
  Recognition of phenylalanine (F) residue by PS610: recognized; also recorded: recognition
PS1223; vimentin peptide fragments
  Recognition of leucine (L) residue by PS1223: recognized; also recorded: recognition

## RLYFIAYPDDD
PS961 [1]
  RS mean PD, recognition of N-terminal leucine: 2.45 s
PS691
  RS mean PD, recognition of N-terminal arginine: 0.9 s
PS610
  Recognition of Y or pY by PS610 between L and F: Y recognition

## VCitFLEQQNK (V[Cit]FLEQQNK) [QP1073, citrullinated peptide fragment of vimentin]
PS1220
  Recognition of arginine / citrulline residue by PS1220: did not recognize; also recorded: does not recognize

## RLK{acetyl}FIAYPDDD (RLK(Ac)FIAYPDDD-NH2; also: C-terminal azidolysine (general statement for all synthetic peptides)) [FAK{acetyl }, peptide containing acetylated lysine]
PS610
  RS mean PD, recognition of N-terminal phenylalanine: 1.8 s
PS1165
  RS mean PD, recognition of N-terminal alanine: 2.2 s

## IAA: peptide with N-terminal IAA; in b185 the N-terminal IAA state of LAQFASIAAYASDDD (not fully specified (C-terminus); also: C-terminal azidolysine conjugated to DNA-streptavidin linker)
PS961 [1]; peptide LAQFASIAAYASDDD, PS610 and PS961, PhTET2 and PhTET3
  Median PD: 0.25 s
PS961 [2]
  Median PD of binding: 0.28 s
